From ChEMBL document CHEMBL5500361, “Probing benzenesulfonamide-thiazolidinone hybrids as multitarget directed ligands for efficient control of type 2 diabetes mellitus through targeting the enzymes: α-glucosidase and carbonic anhydrase II” (Eur J Med Chem, 2024) come the findings set out here.

The structures appear in SMILES notation.

The target of assay [1] is T1, Carbonic anhydrase 2 (Homo sapiens, UniProt P00918).
Description: Binding affinity to human carbonic anhydrase 2 assessed as inhibition constant incubated for 15 mins by phenol red based stopped-flow CO2 hydration assay
For assay [2], the target named is Carbonic anhydrase 12 (Homo sapiens, UniProt O43570).
Sequence of Carbonic anhydrase 12 (O43570 whole entry): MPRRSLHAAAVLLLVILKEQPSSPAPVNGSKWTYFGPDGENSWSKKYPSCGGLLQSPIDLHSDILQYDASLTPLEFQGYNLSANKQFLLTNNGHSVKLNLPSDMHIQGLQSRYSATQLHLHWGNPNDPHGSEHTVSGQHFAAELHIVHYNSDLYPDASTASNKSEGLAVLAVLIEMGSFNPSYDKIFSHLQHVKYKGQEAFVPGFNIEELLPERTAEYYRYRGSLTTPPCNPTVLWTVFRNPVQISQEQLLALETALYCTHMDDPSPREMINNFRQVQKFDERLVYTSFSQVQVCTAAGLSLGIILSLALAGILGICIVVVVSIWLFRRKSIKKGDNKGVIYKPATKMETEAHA
Description: Binding affinity to human carbonic anhydrase 12 assessed as inhibition constant incubated for 15 mins by phenol red based stopped-flow CO2 hydration assay
The test system of assay [3] is MCF7. Kind of assay: Antiproliferative activity against human MCF7 cells assessed as inhibition of cell growth under normoxia condition by MTT colorimetric assay.
Assay [4] concerns MCF7. The experiment in a line: Antiproliferative activity against human MCF7 cells assessed as inhibition of cell growth under hypoxia condition by MTT colorimetric assay. On the technique in general: Tetrazolium assays rely on reduction of a dye to a coloured formazan, in cell work by metabolically active cells.
The target of assay [5] is Carbonic anhydrase 1 (Homo sapiens, UniProt P00915).
Sequence of Carbonic anhydrase 1 (P00915 whole entry): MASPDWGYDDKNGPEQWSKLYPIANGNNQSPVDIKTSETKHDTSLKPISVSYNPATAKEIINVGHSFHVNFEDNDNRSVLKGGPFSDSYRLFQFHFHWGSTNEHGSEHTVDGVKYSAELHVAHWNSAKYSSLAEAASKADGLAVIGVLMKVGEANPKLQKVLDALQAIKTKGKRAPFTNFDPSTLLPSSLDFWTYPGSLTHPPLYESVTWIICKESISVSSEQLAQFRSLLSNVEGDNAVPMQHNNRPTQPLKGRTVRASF
Description: Binding affinity to human carbonic anhydrase 1 assessed as inhibition constant incubated for 15 mins by phenol red based stopped-flow CO2 hydration assay
Assay [6] concerns the target Carbonic anhydrase 9 (Homo sapiens, UniProt Q16790).
Description: Binding affinity to human carbonic anhydrase 9 assessed as inhibition constant incubated for 15 mins by phenol red based stopped-flow CO2 hydration assay
The target of assay [7] is T1, Carbonic anhydrase 2. The source holds these as a separate data set.
Description: Binding affinity to human recombinant carbonic anhydrase 2 assessed as inhibition constant incubated for 15 mins by phenol red based stopped-flow CO2 hydration assay

The Ki is a measure of affinity in units of concentration, obtained from inhibition or displacement. High values mean a looser hold on the target, low ones a stronger hold on the target. In assay [1], `NS(=O)(=O)c1ccc(/N=C2\NC(=O)/C(=C\c3ccc(F)cc3)S2)cc1` yielded an inhibition constant Ki of 7 nM. In other words, the single-digit nanomolar range.

A word on the IC50: it is the concentration that inhibits the measured activity by half. For the compound `CCN1C(=O)/C(=C\c2ccc(F)cc2)S/C1=N/c1ccc(S(N)(=O)=O)cc1`, the Ki amounted to 11 nM in assay [2], 4420 nM in assay [5], 85 nM in assay [1] and 33.9 nM in assay [6]. For the same compound, the values for the IC50 in assay [3] and in assay [4] were 21600 nM and 34000 nM, respectively.

As for `CN1C(=O)/C(=C\c2ccccc2)S/C1=N/c1ccc(S(N)(=O)=O)cc1`, the values for the Ki in assay [2] and in assay [1] were 74.5 nM and 44.5 nM, respectively.

Turning to `CCN1C(=O)/C(=C2\C(=O)Nc3ccccc32)S/C1=N/c1ccc(S(N)(=O)=O)cc1`, the results for the Ki in assay [2] and in assay [1] were 9.1 nM and 105 nM, respectively.

On to `CCN1C(=O)/C(=C\c2ccc(Cl)cc2)S/C1=N/c1ccc(S(N)(=O)=O)cc1`, for which the Ki was determined as 36.3 nM in assay [2] and 30.5 nM in assay [1].

For `NS(=O)(=O)c1ccc(N2C(=O)CS/C2=N\C(=O)c2ccccc2)cc1`, affinity in assay [7] was put at a Ki of 0.41 nM.

For `CN1C(=O)/C(=C\c2ccc(F)cc2)S/C1=N/c1ccc(S(N)(=O)=O)cc1`, the results for the Ki in assay [2] and in assay [1] were 37 nM and 30.7 nM, respectively.

With `COc1ccc(/C=C2/S/C(=N/c3ccc(S(N)(=O)=O)cc3)NC2=O)cc1`, the Ki amounted to 77.6 nM in assay [2] and 24.3 nM in assay [1].

For `NS(=O)(=O)c1ccc(/N=C2\NC(=O)/C(=C\c3ccccc3)S2)cc1`, the Ki in assay [2] was 120 nM; in assay [1], 90.5 nM.

Take `CN1C(=O)/C(=C\c2ccc(Cl)cc2)S/C1=N/c1ccc(S(N)(=O)=O)cc1`: in assay [2], the affinity corresponds to a Ki of 48.8 nM.

With `COc1ccc(/C=C2/S/C(=N/c3ccc(S(N)(=O)=O)cc3)N(C)C2=O)cc1`, the Ki in assay [2] is 66.6 nM; in assay [1], 54.6 nM.

As to `CCN1C(=O)/C(=C\c2ccccc2)S/C1=N/c1ccc(S(N)(=O)=O)cc1`, the Ki in assay [2] is 96.3 nM; in assay [1], 77.2 nM.

`NS(=O)(=O)c1ccc(/N=C2\NC(=O)/C(=C\c3ccc(Cl)cc3)S2)cc1`: the Ki in assay [1] came out at 95.7 nM.

For `CCN1C(=O)/C(=C\c2ccc(OC)cc2)S/C1=N/c1ccc(S(N)(=O)=O)cc1`, the Ki in assay [2] turned out to be 56.6 nM.

With `NS(=O)(=O)c1ccc(/N=C2\NC(=O)/C(=C3\C(=O)Nc4ccccc43)S2)cc1`, the Ki is 33.5 nM in assay [2], 631 nM in assay [5], 23 nM in assay [1] and 47 nM in assay [6].
